Reference: ChEMBL document CHEMBL1201862, “PubChem BioAssay data set” (2004)
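Growth conditions: 96-well plates. Treatment: test compound, 48 hours, 5 concentrations. Analysis: linear interpolation between bracketing concentrations; unreached endpoints set to highest concentration. GI50: concentration for 50% inhibition of growth.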 The source made the active and inactive calls. No stated cut-off is given here; in the data, active = GI50 up to about 1.1 µM and inactive = higher.

How the values were obtained:
Test in all cases: DTP human tumour cell line panel, 48 h
[1] = test system: 786-0
[2] = test system: BT-549
[3] = test system: CAKI-1
[4] = test system: EKVX
[5] = test system: HCT-116
[6] = test system: HCT-15
[7] = test system: IGROV-1
[8] = test system: KM12
[9] = test system: LOX IMVI
[10] = test system: MCF7
[11] = test system: MDA-MB-231
[12] = test system: NCI-H23
[13] = test system: NCI-H522
[14] = test system: OVCAR-3
[15] = test system: OVCAR-5
[16] = test system: SK-OV-3
[17] = test system: SN12C
[18] = test system: SR
[19] = test system: UACC-257
[20] = test system: UACC-62

Measured: GI50

S=c1sc2c(s1)SCc1cccc(n1)CSc1sc(=S)sc1SCc1cccc(n1)CS2
> 100 µM: [6]
inactive: [1] > 100 µM | [2] > 100 µM | [3] > 100 µM | [4] > 100 µM | [5] > 100 µM | [7] > 100 µM | [8] > 100 µM | [9] > 100 µM | [10] > 10 µM | [11] > 100 µM | [12] > 100 µM | [13] > 100 µM | [14] > 100 µM | [15] > 100 µM | [16] > 100 µM | [17] > 100 µM | [18] > 100 µM | [19] > 100 µM | [20] > 100 µM

O=C(O)CC1OCC=C2CN3CCC45c6ccccc6NC4C1C2CC35 (stereo not drawn)
inactive: [1] > 100 µM | [2] > 100 µM | [3] > 100 µM | [4] > 100 µM | [5] > 100 µM | [7] > 100 µM | [8] > 100 µM | [9] > 100 µM | [10] > 100 µM | [11] > 100 µM | [12] > 100 µM | [13] > 100 µM | [14] > 100 µM | [15] > 100 µM | [16] > 100 µM | [17] > 100 µM | [18] > 100 µM | [19] > 100 µM | [20] > 100 µM
> 100 µM: [6]

NC(CCC(=O)NC(CSCC1C(=O)Nc2ccccc21)C(=O)NCC(=O)O)C(=O)O (stereo not drawn)
4.72 µM: [6]
active: [13] 0.968 µM | [18] 0.386 µM
inactive: [1] 3.87 µM | [2] 6.79 µM | [3] 4.41 µM | [4] 11.9 µM | [5] 4.89 µM | [7] 5.52 µM | [8] 9.82 µM | [9] 1.21 µM | [10] 3.75 µM | [11] 7.53 µM | [12] 5.41 µM | [14] 5.62 µM | [15] 12.4 µM | [16] 21 µM | [17] 5.86 µM | [19] 8.11 µM | [20] 8.32 µM

c1cc(-c2sc(-c3ccncc3)c(-c3ccncc3)c2-c2ccncc2)ccn1
inactive: [1] 14.1 µM | [2] 18.7 µM | [3] 36.9 µM | [4] 13.1 µM | [5] 12.9 µM | [7] 18.2 µM | [8] 26 µM | [9] 13.6 µM | [10] 19.4 µM | [11] 15.1 µM | [12] 16.1 µM | [13] 15.5 µM | [14] 16.9 µM | [15] 19.7 µM | [16] 20.9 µM | [17] 17.6 µM | [18] 14.2 µM | [19] 17 µM | [20] 14.1 µM
18.5 µM: [6]

CS(=O)(=O)Nc1ccc(Nc2c3ccccc3nc3ccccc23)cc1
inactive: [1] 3.1 µM | [2] 11 µM | [4] 4.55 µM | [5] 1.83 µM | [7] 2.09 µM | [8] 3.13 µM | [9] 1.26 µM | [11] 3.56 µM | [12] 4.06 µM | [13] 2.06 µM | [14] 4.93 µM | [15] 4.39 µM | [16] 1.89 µM | [19] 1.36 µM | [20] 1.34 µM
2.31 µM: [6]
active: [3] 0.491 µM | [10] 1.07 µM | [17] 0.714 µM | [18] 0.0789 µM

Cc1ccccc1S(=O)(=O)Nn1cnc2ccc(S(=O)(=O)Nc3ccc(Cl)cc3)cc2c1=O
> 100 µM: [6]
inactive: [1] > 100 µM | [2] > 100 µM | [3] > 100 µM | [4] 35.2 µM | [5] > 100 µM | [7] 7.59 µM | [8] 12.4 µM | [9] > 100 µM | [10] > 100 µM | [11] > 100 µM | [12] 60.4 µM | [13] > 100 µM | [14] 85.5 µM | [15] > 100 µM | [16] > 100 µM | [17] > 100 µM | [18] > 100 µM | [19] > 100 µM | [20] 27.5 µM

NC(=O)C(Nc1ccc(Cl)cc1)c1cc2cc(Br)ccc2nc1Cl (stereo not drawn)
inactive: [1] > 50 µM | [2] > 50 µM | [3] > 50 µM | [4] 18.6 µM | [5] > 50 µM | [7] 17.6 µM | [8] > 50 µM | [9] > 50 µM | [10] 40.8 µM | [11] > 50 µM | [12] > 50 µM | [13] 31.5 µM | [14] > 50 µM | [15] > 50 µM | [16] > 50 µM | [17] > 50 µM | [18] 18.9 µM | [19] > 50 µM | [20] > 50 µM
> 50 µM: [6]

CC[C@H](C)c1occ2c(O)c(C(=O)O)c(=O)cc-2c1C
inactive: [1] 40.1 µM | [2] 25.9 µM | [3] 37.8 µM | [4] 30.8 µM | [5] 18.8 µM | [7] 18.6 µM | [8] 18.5 µM | [9] 15.6 µM | [10] 29.2 µM | [11] 23 µM | [12] 21.4 µM | [13] 14.7 µM | [14] 19.5 µM | [15] 19.5 µM | [16] 26.1 µM | [17] 22.5 µM | [18] 21.9 µM | [19] 30.3 µM | [20] 17.3 µM
16.7 µM: [6]

COc1cc2c(cc1C[N+](C)(C)CSc1ccccc1)-c1ccccc1CC2
16.5 µM: [6]
inactive: [1] 6.07 µM | [2] 3.89 µM | [3] 13.5 µM | [4] 10.6 µM | [5] 2.24 µM | [7] 2.47 µM | [8] 2.2 µM | [9] 4 µM | [10] 5 µM | [11] 2.86 µM | [12] 3.76 µM | [13] 2.01 µM | [14] 2.29 µM | [15] 12 µM | [16] 12.6 µM | [17] 6.21 µM | [18] 2.01 µM | [19] 2.52 µM | [20] 2.52 µM

CCOC(=O)c1nc2ccccc2nc1NCc1ccc(OC)cc1
> 100 µM: [6]
inactive: [1] > 100 µM | [2] > 100 µM | [3] > 100 µM | [4] > 100 µM | [5] 54.8 µM | [7] > 100 µM | [8] 44.6 µM | [9] > 100 µM | [10] 47.4 µM | [11] 99.8 µM | [12] > 100 µM | [13] 56.9 µM | [14] > 100 µM | [15] > 100 µM | [16] > 100 µM | [18] > 100 µM | [19] > 100 µM | [20] 84.1 µM

COc1cccc(-c2cc(=O)c3ccc(C)nc3[nH]2)c1
active: [1] 0.0491 µM | [2] 0.299 µM | [3] 0.0458 µM | [5] 0.0448 µM | [7] 0.0461 µM | [8] 0.0366 µM | [9] 0.0596 µM | [10] 0.165 µM | [11] 0.245 µM | [12] 0.214 µM | [13] 0.0448 µM | [14] 0.0219 µM | [15] 0.239 µM | [16] 0.051 µM | [17] 0.122 µM | [18] 0.016 µM | [20] 0.0436 µM
0.0402 µM: [6]
inactive: [4] 1.96 µM
